Data from patent US11390604B2 (Hoffmann-La Roche Inc., priority 2019, dated 2022).
Counter-ions that a name gives are not always drawn.

tested on: Acinetobacter baumannii ATCC 17961; assay: Antimicrobial susceptibility testing: 90% growth inhibitory concentration (IC90) determination; type: cell-based; settings: ATCC17961, Acinetobacter baumannii ATCC 17961, Iso-Sensitest broth, read-out: ATCC 17961 IC90
How it was run: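 Growth was followed kinetically by OD600 at 20-min intervals for 16 h at 35±2 °C, with ~5×10^5 CFU/ml in Iso-Sensitest broth. Compounds were tested as twofold dilutions (e.g. 50–0.097 μM final). The concentration giving 90% inhibition of log-phase growth was reported.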

| SMILES | IC90 [nM] |
| --- | --- |
| Cn1c(-c2cn(C3CC3(F)F)nc2C(F)(F)F)cnc1C(=O)Nc1ccc(N2CCCC2=O)cc1 (stereo not drawn) [Example 204, 5-(1-(2,2-difluorocyclopropyl)-3-(trifluoromethyl)-1H-pyrazol-4-yl)-1-methyl-N-(4-(2-oxopyrrolidin-1-yl)phenyl)-1H-imidazole-2-carboxamide] | 223 |
| Cn1c(-c2cn(CC3CC3)nc2C(F)(F)F)cnc1C(=O)Nc1ccc(C(=O)N2CCN(C(=O)[C@@H]3CC[C@@H](N)C3)CC2)c(Cl)c1 [Example 206, N-(4-(4-((1R,3R)-3-aminocyclopentane-1-carbonyl)piperazine-1-carbonyl)-3-chlorophenyl)-5-(1-(cyclopropylmethyl)-3-(trifluoromethyl)-1H-pyrazol-4-yl)-1-methyl-1H-imidazole-2-carboxamide] | 224 |
| Cn1c(-c2cn(CC3CC3)nc2C(F)(F)F)cnc1C(=O)Nc1ccc(C(=O)N2CCN(C(=O)C3CNC3)CC2)c(Cl)c1 [Example 208, N-(4-(4-(azetidine-3-carbonyl)piperazine-1-carbonyl)-3-chlorophenyl)-5-(1-(cyclopropylmethyl)-3-(trifluoromethyl)-1H-pyrazol-4-yl)-1-methyl-1H-imidazole-2-carboxamide] | 226 |
| Cn1c(-c2cn(CC(F)F)nc2C(F)(F)F)cnc1C(=O)Nc1ccc(S(=O)(=O)N2CCN(C(=O)[C@H]3CC[C@@H](N)C3)CC2)c(Cl)c1 [Example 211, N-(4-((4-((1S,3R)-3-aminocyclopentane-1-carbonyl)piperazin-1-yl)sulfonyl)-3-chlorophenyl)-5-(1-(2,2-difluoroethyl)-3-(trifluoromethyl)-1H-pyrazol-4-yl)-1-methyl-1H-imidazole-2-carboxamide hydrochloride] | 231 |

More lines, now with the values ahead:

| IC90 [nM] | SMILES |
| --- | --- |
| 224 | C=C(C)Cn1cc(-c2cnc(C(=O)Nc3ccc(C(=O)NCCCCCN)c(Cl)c3)n2C)c(C(F)(F)F)n1 [Example 205, N-(4-((5-aminopentyl)carbamoyl)-3-chlorophenyl)-1-methyl-5-(1-(2-methylallyl)-3-(trifluoromethyl)-1H-pyrazol-4-yl)-1H-imidazole-2-carboxamide hydrochloride] |
| 226 | Cn1c(-c2cn(C3CC3)nc2C(F)(F)F)cnc1C(=O)Nc1ccc(C(=O)N2CCC(CN)CC2)c(Cl)c1 [Example 207, N-(4-(4-(aminomethyl)piperidine-1-carbonyl)-3-chlorophenyl)-5-(1-cyclopropyl-3-(trifluoromethyl)-1H-pyrazol-4-yl)-1-methyl-1H-imidazole-2-carboxamide formate] |
| 230 | Cn1c(-c2cn(CC3CC3)nc2C(F)(F)F)cnc1C(=O)Nc1ccc(C(=O)N2CCN(C(=O)CN)CC2)c(Cl)c1 [Example 209, N-(3-chloro-4-(4-glycylpiperazine-1-carbonyl)phenyl)-5-(1-(cyclopropylmethyl)-3-(trifluoromethyl)-1H-pyrazol-4-yl)-1-methyl-1H-imidazole-2-carboxamide] |
| 235 | Cn1c(-c2cn(C3CC3(F)F)nc2C(F)(F)F)cnc1C(=O)Nc1ccc(C(=O)N2CC3C(N)C3C2)c(Cl)c1 (stereo not drawn) [Example 212, N-(4-(6-amino-3-azabicyclo[3.1.0]hexane-3-carbonyl)-3-chlorophenyl)-5-(1-(2,2-difluorocyclopropyl)-3-(trifluoromethyl)-1H-pyrazol-4-yl)-1-methyl-1H-imidazole-2-carboxamide formate] |

same assay, conditions: Acinetobacter baumannii, ATCC17961, read-out: ATCC 17961 IC90, Acinetobacter baumannii ATCC 17961, Iso-Sensitest broth

| SMILES | IC90 [nM] |
| --- | --- |
| Cn1c(-c2cn(C3CC4(CC4)C3)nc2C(F)(F)F)cnc1C(=O)Nc1ccc(C(=O)N2CCN(C(=O)N[C@H]3C[C@@H](N)C3)CC2)c(Cl)c1 [Example 210, rac-N-((1s,3s)-3-aminocyclobutyl)-4-(2-chloro-4-(1-methyl-5-(1-(spiro[2.3]hexan-5-yl)-3-(trifluoromethyl)-1H-pyrazol-4-yl)-1H-imidazole-2-carboxamido)benzoyl)piperazine-1-carboxamide hydrochloride] | 231 |
